Assays:
Experiment in all cases: absorption spectrum of BV complex; anaerobic bilin reductase assay with HPLC
Assay type in all cases: biochemical
Conditions in all cases: ferredoxin (Synechococcus sp. PCC 7002), FNR, NADPH 100 uM; 10 uM BV, 10 uM PubS; pH 8.5, 30 °C
[1] = target: T1, ΔΝ_PpPubS (PpPubS, PubS) (Physcomitrium patens, UniProt I3TC50, N310R)
T1 construct: residues 1-55 (N-terminal disordered region) deleted; N-terminal His-tag, pET28a, synthetic codon-optimised gene, E. coli C41

[2] = target: T2, ΔΝ_PpPubS (PpPubS, PubS) (Physcomitrium patens, UniProt I3TC50, F238A/N310R)
T2 construct: residues 1-55 (N-terminal disordered region) deleted; N-terminal His-tag, pET28a, synthetic codon-optimised gene, E. coli C41
T2 sequence (I3TC50 entry or part of it F238A/N310R): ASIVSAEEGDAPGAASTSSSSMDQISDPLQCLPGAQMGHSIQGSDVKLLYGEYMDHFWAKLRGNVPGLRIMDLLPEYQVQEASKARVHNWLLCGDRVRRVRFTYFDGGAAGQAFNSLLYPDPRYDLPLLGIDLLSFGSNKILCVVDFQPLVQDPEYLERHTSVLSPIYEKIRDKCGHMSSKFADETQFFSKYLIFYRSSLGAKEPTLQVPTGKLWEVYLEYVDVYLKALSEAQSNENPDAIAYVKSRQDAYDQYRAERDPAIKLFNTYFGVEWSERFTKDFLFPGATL

[3] = target: T3, ΔΝ_PpPubS (PpPubS, PubS) (Physcomitrium patens, UniProt I3TC50, E240A/N310R)
T3 construct: residues 1-55 (N-terminal disordered region) deleted; N-terminal His-tag, pET28a, synthetic codon-optimised gene, E. coli C41
T3 sequence (I3TC50 entry or part of it E240A/N310R): as the sequence (I3TC50 entry or part of it F238A/N310R) above, with A183F, E185A counted along it

T1 sequence (I3TC50 entry or part of it N310R): as the sequence (I3TC50 entry or part of it F238A/N310R) above, with A183F counted along it

With `C=CC1=C(C)C(=Cc2[nH]c(C=C3N=C(C=C4NC(=O)C(C)=C4C=C)C(C)=C3CCC(=O)O)c(CCC(=O)O)c2C)NC1=O` [biliverdin IXα] the “absorption spectrum of BV complex; anaerobic bilin reductase assay with HPLC” value [1] was “PpPubS_N310R exhibited a decrease in BV absorbance similar to the wild-type molecule”, the “absorption spectrum of BV complex; anaerobic bilin reductase assay with HPLC” value [2] was “Spectroscopic observations of these variants showed a decrease in BV after the addition of NADPH” and the “absorption spectrum of BV complex; anaerobic bilin reductase assay with HPLC” value [3] was “Spectroscopic observations of these variants showed a decrease in BV after the addition of NADPH”.

— PMC11879140, “Engineering of Phycourobilin Synthase: PubS to a Two-Electron Reductase” (Plant and Cell Physiology, 2024)
